Numbers after ± are expanded uncertainties.
Assay: Molar enthalpy of transition or fusion
Settings: Crystal; DSC

Compound: O=C1/C(=C/c2ccc(Cl)cc2)CCc2ccccc21
- Molar enthalpy of transition or fusion: 30.7 ± 1 kJ/mol
